From patent US20170334899A1, “AMINO-SUBSTITUTED ISOTHIAZOLES” (Bayer Pharma Aktiengesellschaft, priority 2014, published 2017)

Legend:
Caco-2 = experiment: Proliferation assay (crystal violet), Caco-2; format: cell-based; details: Homo sapiens, 96 h; Caco-2 cells; 4 days incubation; crystal violet staining; read-out: IC50 inhibition of proliferation, Caco2
Protocol: (§1) Cultivated tumor cells (cells were ordered from ATCC, except HeLa-MaTu and HeLa-MaTu-ADR, which were ordered from EPO-GmbH, Berlin) were plated at a density of 1000 to 5000 cells/well, depending on the growth rate of the respective cell line, in a 96-well multititer plate in 200 μL of their respective growth medium supplemented 10% fetal calf serum. After 24 hours, the cells of one plate (zero-point plate) were stained with crystal violet (see below), while the medium of the other plates was replaced by fresh culture medium (200 μl), to which the test substances were added in various concentrations (0 μM, as well as in the range of 0.001-10 μM; the final concentration of the solvent dimethyl sulfoxide was 0.5%). The cells were incubated for 4 days in the presence of test substances. Cell proliferation was determined by staining the cells with crystal violet: the cells were fixed by adding 20 μl/measuring point of an 11% glutaric aldehyde solution for 15 minutes at room temperature. After three washing cycles of the fixed cells with water, the plates were dried at room temperature. The cells were stained by adding 100 μl/measuring point of a 0.1% crystal violet solution (pH 3.0). After three washing cycles of the stained cells with water, the plates were dried at room temperature. The dye was dissolved by adding 100 μl/measuring point of a 10% acetic acid solution. Absorbtion was determined by photometry at a wavelength of 595 nm. The change of cell number, in percent, was calculated by normalization of the measured values to the aborbtion values of the zero-point plate (=0%) and the absorbtion of the untreated (0 μm) cells (=100%). The IC50 values were determined by means of a 4 parameter fit.

HeLa-MaTu-ADR = experiment: Proliferation assay (crystal violet), HeLa-MaTu-ADR; format: cell-based; details: 96 h; HeLa-MaTu-ADR cells; 4 days incubation; crystal violet staining; read-out: IC50 inhibition of proliferation, HeLa-MaTu-ADR
Protocol: as §1

B16F10 = experiment: Proliferation assay (crystal violet), B16F10; format: cell-based; details: Mus musculus, B16-F10, 96 h; B16F10 cells; 4 days incubation; crystal violet staining; read-out: IC50 inhibition of proliferation, B16F10
Protocol: as §1

DU145 = experiment: Proliferation assay (crystal violet), DU145; format: cell-based; details: Homo sapiens, DU-145, 96 h; DU145 cells; 4 days incubation; crystal violet staining; read-out: IC50 inhibition of proliferation, DU145
Protocol: as §1

[1] = biological target: T1, catalytic domain of human Bub1 (amino acids 704-1085) (Homo sapiens, UniProt O43683); experiment: Bub1 kinase assay (TR-FRET); format: biochemical; details: 10 μM ATP, avg, read-out: Bub1 avg (IC50 [mol/l])
T1 construct: catalytic domain of human Bub1 (amino acids 704-1085); His6 (N); made in house; host or cells: insect cells (Hi5)
T1 sequence (O43683 704-1085): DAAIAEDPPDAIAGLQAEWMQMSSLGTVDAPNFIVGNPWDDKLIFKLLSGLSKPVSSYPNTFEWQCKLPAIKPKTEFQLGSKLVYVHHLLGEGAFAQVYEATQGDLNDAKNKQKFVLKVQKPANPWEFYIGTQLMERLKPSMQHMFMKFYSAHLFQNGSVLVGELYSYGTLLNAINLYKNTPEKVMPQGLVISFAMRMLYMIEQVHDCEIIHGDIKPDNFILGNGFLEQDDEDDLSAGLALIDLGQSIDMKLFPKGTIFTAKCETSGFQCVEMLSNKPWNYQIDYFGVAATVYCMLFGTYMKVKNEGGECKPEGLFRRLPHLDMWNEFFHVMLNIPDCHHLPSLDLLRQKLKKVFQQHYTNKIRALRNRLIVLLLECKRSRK
How it was run: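 Readout is the 665/620 nm TR-FRET ratio from anti-phosphoserine antibody, Eu-labelled anti-mouse IgG and streptavidin-XL665, scaled between no-enzyme and uninhibited controls. Reaction: 1 μM biotinylated peptide, 10 μM ATP, 60 min, 22 °C, after 15 min compound preincubation with His6-Bub1 (704-1085, insect-expressed, ~200 ng/ml).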

NCI-H460 = experiment: Proliferation assay (crystal violet), NCI-H460; format: cell-based; details: Homo sapiens, 96 h; NCI-H460 cells; 4 days incubation; crystal violet staining; read-out: IC50 inhibition of proliferation, NCI-H460
Protocol: as §1

IC50 (Caco-2) [nM]	IC50 (HeLa-MaTu-ADR) [nM]	IC50 (B16F10) [nM]	IC50 (DU145) [nM]	IC50 [1] [nM]	IC50 (NCI-H460) [nM]	SMILES
300	330	700	570	≥ 20000	290	Cc1nsc(Nc2cnc3ccccc3n2)c1C(=O)Nc1cccc(-c2nc(C(C)(C)C)no2)c1 [Example 108, N-[3-(3-tert-Butyl-1,2,4-oxadiazol-5-yl)phenyl]-3-methyl-5-(quinoxalin-2-ylamino)-1,2-thiazole-4-carboxamide]
160	130	190	300	≥ 20000	98	Cc1nsc(Nc2cnc(C(F)(F)F)cn2)c1C(=O)Nc1ccc(OC2CCN(CC(F)(F)F)CC2)nc1 [Example 9, -Methyl-N-(6-{[1-(2,2,2-trifluoroethyl)piperidin-4-yl]oxy}pyridin-3-yl)-5-{[5-(trifluoromethyl)pyrazin-2-yl]amino}-1,2-thiazole-4-carboxamide]
110	150	460	460	≥ 20000	170	Cc1nsc(Nc2ccc(C#N)cn2)c1C(=O)Nc1ccc(C(=O)OC(C)(C)C)cc1 [Example 98, tert-Butyl 4-[({5-[(5-cyanopyridin-2-yl)amino]-3-methyl-1,2-thiazol-4-yl}carbonyl)-amino]benzoate]
1500	950	800	2000	≥ 20000	360	Cc1nsc(Nc2cncc(C(F)(F)F)n2)c1C(=O)Nc1ccc(OCC2CCN(C(=O)OC(C)(C)C)C2)nc1 (stereo not drawn) [Example 110, tert-Butyl 3-{[(5-{[(3-methyl-5-{[6-(trifluoromethyl)pyrazin-2-yl]amino}-1,2-thiazol-4-yl)carbonyl]amino}pyridin-2-yl)oxy]methyl}pyrrolidine-1-carboxylate]
180	57	300	140	≥ 20000	170	Cc1nsc(Nc2cnc(C(F)(F)F)cn2)c1C(=O)Nc1ccc(OC2CCN(CCC(F)(F)F)CC2)nc1 [Example 10, 3-Methyl-5-{[5-(trifluoromethyl)pyrazin-2-yl]amino}-N-(6-{[1-(3,3,3-trifluoropropyl)-piperidin-4-yl]oxy}pyridin-3-yl)-1,2-thiazole-4-carboxamide]
100	660	730	310	≥ 20000	300	Cc1nsc(Nc2cnc3ccccc3n2)c1C(=O)Nc1ccc(Oc2cccc(C(F)(F)F)c2)nc1 [Example 117, 3-Methyl-5-(quinoxalin-2-ylamino)-N-{6-[3-(trifluoromethyl)phenoxy]pyridin-3-yl}-1,2-thiazole-4-carboxamide]
280	170	350	660	≥ 20000	230	Cc1nsc(Nc2cnc(C(F)(F)F)cn2)c1C(=O)Nc1ccc(OCC2CCN(C(=O)OC(C)(C)C)C2)nc1 (stereo not drawn) [Example 109, tert-Butyl 3-{[(5-{[(3-methyl-5-{[5-(trifluoromethyl)pyrazin-2-yl]amino}-1,2-thiazol-4-yl)carbonyl]amino}pyridin-2-yl)oxy]methyl}pyrrolidine-1-carboxylate]
340	320	380	750	≥ 20000	480	Cc1nsc(Nc2ccc(C#N)cn2)c1C(=O)Nc1ccc(Oc2cccc(C(F)(F)F)c2)nc1 [Example 118, 5-[(5-Cyanopyridin-2-yl)amino]-3-methyl-N-{6-[3-(trifluoromethyl)phenoxy]pyridin-3-yl}-1,2-thiazole-4-carboxamide]
330	410	1100	800	≥ 20000	740	Cc1nsc(Nc2cnc(C(F)(F)F)cn2)c1C(=O)Nc1ccc(C(=O)OC(C)(C)C)cc1 [Example 96, tert-Butyl 4-{[(3-methyl-5-{[5-(trifluoromethyl)pyrazin-2-yl]amino}-1,2-thiazol-4-yl)carbonyl]amino}benzoate]
150	110	210	250	≥ 20000	100	Cc1nsc(Nc2cnc(C(F)(F)F)cn2)c1C(=O)Nc1ccc(OC2CCN(CC(F)F)CC2)nc1 [Example 8, N-(6-{[1-(2,2-Difluoroethyl)piperidin-4-yl]oxy}pyridin-3-yl)-3-methyl-5-{[5-(trifluoromethyl)pyrazin-2-yl]amino}-1,2-thiazole-4-carboxamide]
470	640	400	1100	≥ 20000	270	Cc1nsc(Nc2cncc(C(F)(F)F)n2)c1C(=O)Nc1ccc(OC2CCN(C(=O)OC(C)(C)C)CC2)nc1 [Example 12, tert-Butyl 4-[(5-{[(3-methyl-5-{[6-(trifluoromethyl)pyrazin-2-yl]amino}-1,2-thiazol-4-yl)carbonyl]amino}pyridin-2-yl)oxy]piperidine-1-carboxylate]
920	520	1500	1400	≥ 20000	810	Cc1nsc(Nc2cnc(C(F)(F)F)cn2)c1C(=O)Nc1ccc(OC2CCN(CCF)CC2)nc1 [Example 7, N-(6-{[1-(2-Fluoroethyl)piperidin-4-yl]oxy}pyridin-3-yl)-3-methyl-5-{[5-(trifluoromethyl)pyrazin-2-yl]amino}-1,2-thiazole-4-carboxamide]
